The target in data set [1] is T1, Organic anion transporter 3 (OAT3) (Rattus norvegicus, UniProt Q9R1U7).
T1 sequence (Q9R1U7 whole entry): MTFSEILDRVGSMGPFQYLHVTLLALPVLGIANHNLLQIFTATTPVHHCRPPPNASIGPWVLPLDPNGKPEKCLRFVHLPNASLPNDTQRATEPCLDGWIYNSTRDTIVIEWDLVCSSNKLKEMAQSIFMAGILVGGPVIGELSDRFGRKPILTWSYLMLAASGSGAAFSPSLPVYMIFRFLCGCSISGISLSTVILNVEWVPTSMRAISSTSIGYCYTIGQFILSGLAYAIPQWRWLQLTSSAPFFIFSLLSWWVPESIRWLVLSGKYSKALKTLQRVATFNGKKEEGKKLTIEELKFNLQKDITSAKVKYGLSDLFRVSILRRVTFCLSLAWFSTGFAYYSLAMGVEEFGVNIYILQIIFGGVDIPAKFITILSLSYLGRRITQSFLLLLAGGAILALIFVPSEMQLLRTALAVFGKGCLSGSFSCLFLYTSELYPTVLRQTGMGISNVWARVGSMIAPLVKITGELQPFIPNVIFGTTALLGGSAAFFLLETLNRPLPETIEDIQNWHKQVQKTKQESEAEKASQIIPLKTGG
The data set is described as follows: TP_TRANSPORTER: inhibition of Homovanillic acid uptake (HVA: 0.2 uM, PAH: 1000 uM) in Xenopus laevis oocytes. The class given is functional, cell-based, Oocyte. Further details: scale not given: the % may be the effect or the level left. The settings on record: Xenopus laevis oocytes (Organic anion transporter 3), probe Homovanillic acid (HVA), read-out: Activity.

The target of data set [2] is T1, Organic anion transporter 3 (OAT3). The data set is described as follows: TP_TRANSPORTER: inhibition of Homovanillic acid uptake (HVA: 0.2 uM, Baclofen: 1000 uM) in Xenopus laevis oocytes. In kind it is functional, cell-based, Oocyte. On the set-up: scale not given: the % may be the effect or the level left. The settings on record: Xenopus laevis oocytes (Organic anion transporter 3), probe Homovanillic acid (HVA), read-out: Activity.

Data set [3] has the same target. Description: in vitro. Conditions: xenopus laevis, Xenopus laevis oocytes (Organic anion transporter 3), probe Homovanillic acid (HVA), 0.2 uM.
Description: TP_TRANSPORTER: inhibition of Homovanillic acid uptake (HVA: 0.2 uM, Cimetidine: 1000 uM) in Xenopus laevis oocytes
Data set [4] shares this target. Description: TP_TRANSPORTER: inhibition of Homovanillic acid uptake (HVA: 0.2 uM, E1S; 1000 uM) in Xenopus laevis oocytes. The class given is functional, cell-based, Oocyte. Conditions: Xenopus laevis oocytes (Organic anion transporter 3), probe Homovanillic acid (HVA), read-out: Activity. Further details: scale not given: the % may be the effect or the level left.

For data set [5] the target is unchanged. Description: TP_TRANSPORTER: inhibition of Homovanillic acid uptake (HVA: 0.2 uM, Indomethacin: 1000 uM) in Xenopus laevis oocytes. The class given is functional, cell-based, Oocyte. On the set-up: scale not given: the % may be the effect or the level left. Conditions: Xenopus laevis oocytes (Organic anion transporter 3), probe Homovanillic acid (HVA), read-out: Activity.

Data set [6] shares this target. The data set is described as follows: TP_TRANSPORTER: inhibition of Homovanillic acid uptake (HVA: 0.2 uM, 6-mercaptopurine: 1000 uM) in Xenopus laevis oocytes. Further details: scale not given: the % may be the effect or the level left. Conditions: Xenopus laevis oocytes (Organic anion transporter 3), probe Homovanillic acid (HVA), read-out: Activity. In kind it is functional, cell-based, Oocyte.

For data set [7] the target is unchanged. Description: TP_TRANSPORTER: inhibition of Homovanillic acid uptake (HVA: 0.2 uM, PCG: 1000 uM) in Xenopus laevis oocytes. The class given is functional, cell-based, Oocyte. On the set-up: scale not given: the % may be the effect or the level left. Conditions: Xenopus laevis oocytes (Organic anion transporter 3), probe Homovanillic acid (HVA), read-out: Activity.

Data set [8] shares this target. Description: TP_TRANSPORTER: inhibition of Homovanillic acid uptake (HVA: 0.2 uM, Probenecid: 1000 uM) in Xenopus laevis oocytes. The class given is functional, cell-based, Oocyte. Further details: scale not given: the % may be the effect or the level left. The settings on record: Xenopus laevis oocytes (Organic anion transporter 3), probe Homovanillic acid (HVA), read-out: Activity.

Substrate in data set [9]: COc1cc(CC(=O)O)ccc1O
Description: TP_TRANSPORTER: uptake in Xenopus laevis oocytes. In kind it is functional, cell-based, Oocyte.

`Nc1ccc(C(=O)NCC(=O)O)cc1` [AMINOHIPPURIC ACID]: the activity at 1000 µM in data set [1] came to 20.3%.
On to `NCC(CC(=O)O)c1ccc(Cl)cc1` (centres undefined) [BACLOFEN], for which the activity at 1000 µM in [2] is 23.2%.
As to `CN/C(=N/CCSCc1nc[nH]c1C)NC#N` [CIMETIDINE], the activity at 1000 µM in data set [3] turned out to be 24.5%.
With `C[C@]12CC[C@@H]3c4ccc(OS(=O)(=O)O)cc4CC[C@H]3[C@@H]1CCC2=O` [ESTRONE SULFURIC ACID], in data set [4], the activity at 1000 µM worked out at 4.35%.
With `COc1ccc2c(c1)c(CC(=O)O)c(C)n2C(=O)c1ccc(Cl)cc1` [INDOMETHACIN], in data set [5], the activity at 1000 µM amounted to 40.9%.
With `Sc1ncnc2nc[nH]c12` [MERCAPTOPURINE ANHYDROUS], the activity at 1000 µM in data set [6] was determined as 8.67%.
Consider `CC1(C)S[C@@H]2[C@H](NC(=O)Cc3ccccc3)C(=O)N2[C@H]1C(=O)O` [PENICILLIN G], for which, in data set [7], the activity at 1000 µM is 1.01%.
As to `CCCN(CCC)S(=O)(=O)c1ccc(C(=O)O)cc1` [PROBENECID], the activity at 1000 µM in [8] was found to be 23.4%.

B1: Organic anion transporter 3 (Rattus norvegicus) (protein)
chain: T1 sequence (Q9R1U7 whole entry)
In general, Km refers to the concentration of substrate that gives half-maximal velocity. Turning to B1, the Michaelis constant (Km) in data set [9] stood at 274 µM.

For the origin of these results see ChEMBL document CHEMBL2073749, “Rat organic anion transporter 3 (rOAT3) is responsible for brain-to-blood efflux of homovanillic acid at the abluminal membrane of brain capillary endothelial cells” (J Cereb Blood Flow Metab, 2003).
